Where two headings read alike, the source gives them in different places.
Tests used:
Anopheles gambiae = assay: Warm Body assay, mosquito landings on treated warm body; assay type: in vivo; conditions: Anopheles gambiae, read-out: Percentage of repellence of mosquitoes Anopheles gambiae landing on the warm body; for pest or weed control at 178 µg/mL: 0.178 mg/mL (Table 4); for pest or weed control at 267 µg/mL: 0.267 mg/mL (Table 4); for pest or weed control at 400 µg/mL: 0.4 mg/mL (Table 4); for pest or weed control at 4470 µg/mL: 4.47 mg/mL (Table 4); for pest or weed control at 10000 µg/mL: 10 mg/mL (Table 4)
Description: Anopheles gambiae is also a model organism as it is anthropophilic and transmits malaria.
(§1) The controlling effect according to the present invention was assessed using an adapted Warm Body assay as defined in Kröber T, Kessler S, Frei J, Bourquin M, Guerin P M. 2010. J Am Mosq Control Assoc. 26: 381-386. In this in-vitro assay the number of mosquito landing on a warm body, simulating an attractive host treated with the tested stimuli, was measured in order to assess the repellence effect.
(§2) On the sandblasted glass Petri dish covering the warm body (28.3 cm^2), 100 μL of the compounds diluted at different concentrations in ethanol was applied. The number of mosquito landing on the warm body was counted for each stimulus and pure ethanol (solvent) as control.

Aedes aegypti = assay: as above; assay type: in vivo
Description: The arthropod controlling effect according to the present invention is determined on mosquitoes using an adapted Warm Body assay as defined in Kröber T, Kessler S, Frei J, Bourquin M, Guerin PM. An in vitro assay for testing mosquito controlling compounds employing a warm body and carbon dioxide as a behavioral activator. J Am Mosq Control Assoc. 2010; 26: 381-386. Further information is provided in the accompanying examples
The controlling effect, repellence & spatial repellence, according to the present invention is determined by testing the Warm Body assay against the yellow fever mosquito, Aedes aegypti Rockefeller strain. […] Observations of controlling efficacy were made on host-seeking females of uniform age, 5 to 10 days old selected as mentioned in the publication mentioned hereinabove. Tested hungry females had access to 10% sugar solution but were not blood-fed. Further information is provided in the accompanying examples.
The published protocol has been adapted in not manually counting the landing mosquitoes but automatically using an automatic counting software, the switch from Anopheles gambiae to A. aegypti led to a decrease of mosquitoes' number placed in the tested cage due to the size difference (i.e. 30 mosquitoes instead of 50) and to an increase of lighting as A. aegypti is a diurnal mosquitoes (i.e. 150 lux instead of 4 lux). Further information is provided in the accompanying examples. […]
as §1
The published protocol has been adapted as the switch from Anopheles gambiae to Aedes aegypti led to a decrease of mosquitoes placed in the tested cage due to the size difference (i.e. 30 mosquitoes instead of 50) and to an increase of lighting since A. aegypti is a diurnal mosquitoes (i.e. 150 lux instead of 4 lux).
as §2

Ixodes ricinus = assay: Warm Plate assay, tick repellence; conditions: for pest or weed control at 400 µg/mL / pest or weed control at 2000 µg/mL / pest or weed control at 10000 µg/mL: Ixodes ricinus, read-out: Percentage of repellence of ticks Ixodes ricinus on the warm plate; for ticks repelled: concentration of 1% (Table 10)
[1] = Aedes aegypti, 0.016 mg/mL (Table 3), read-out: Percentage of repellence of mosquitoes Aedes aegypti landing on the warm body
[2] = Aedes aegypti, 0.4 mg/mL (Table 3), read-out: Percentage of repellence of mosquitoes Aedes aegypti landing on the warm body
[3] = Aedes aegypti, 10 mg/mL (Table 3), read-out: Percentage of repellence of mosquitoes Aedes aegypti landing on the warm body
[4] = Aedes aegypti, read-out: Percentage of repellence of mosquitoes Aedes aegypti landing on the warm body

Molecule `CCCc1ccc2c(c1)OC(C(C)=O)O2` (centres unmarked) [compound 908, 1-(5-propyl-1,3-benzodioxol-2-yl)ethanone] has a pest or weed control at 178 µg/mL (Anopheles gambiae) of 61%, a pest or weed control at 267 µg/mL (Anopheles gambiae) of 95% and a pest or weed control at 400 µg/mL (Anopheles gambiae) of 51%. For the same molecule, the pest or weed control at 4470 µg/mL (Anopheles gambiae) was 74%, the pest or weed control at 10000 µg/mL (Anopheles gambiae) was 84% and the pest or weed control at 16 µg/mL (Aedes aegypti; [1]) was 10%. The pest or weed control at 400 µg/mL (Aedes aegypti; [2]) was 37% and the pest or weed control at 10000 µg/mL (Aedes aegypti; [3]) was 85%.
Molecule `CC=Cc1cccc(OC)c1OC` [compound 1125, 1,2-dimethoxy-3-prop-1-enylbenzene] has a pest or weed control at 16 µg/mL (Aedes aegypti; [1]) of 32%, a pest or weed control at 400 µg/mL (Aedes aegypti; [2]) of 78% and a pest or weed control at 10000 µg/mL (Aedes aegypti; [3]) of 92%. For the same molecule, the pest or weed control at 1 % (Aedes aegypti; Aedes aegypti, highest tested concentration, 1% (Table 3), read-out: repellence) was over 90%, the pest or weed control at 0.04 % (Aedes aegypti; Aedes aegypti, intermediate concentration of 0.04% (Table 3), read-out: repellence) was over 75% and the “repellence of ticks Ixodes ricinus” value (Ixodes ricinus; 1% of stimulus applied (Table 9)) was “above 90%”. For the same molecule, the pest or weed control at 400 µg/mL (Ixodes ricinus) was 25%, the pest or weed control at 2000 µg/mL (Ixodes ricinus) was 36.4% and the pest or weed control at 10000 µg/mL (Ixodes ricinus) was 91.7%.
Molecule `C=CCc1cc(OC)c(O)c(OC)c1` [compound 1191, 4-allyl-2,6-dimethoxyphenol] has a pest or weed control at 3.2 µg/mL (Aedes aegypti; Aedes aegypti, 0.0032 mg/mL (Table 1), read-out: Percentage of repellence of mosquitoes Aedes aegypti landing on the warm body) of 60%, a pest or weed control at 7.1 µg/mL (Aedes aegypti; Aedes aegypti, 0.0071 mg/mL (Table 1), read-out: Percentage of repellence of mosquitoes Aedes aegypti landing on the warm body) of 52% and a pest or weed control at 16 µg/mL (Aedes aegypti; Aedes aegypti, 0.016 mg/mL (Table 1), read-out: Percentage of repellence of mosquitoes Aedes aegypti landing on the warm body) of 70%. The pest or weed control at 35.7 µg/mL (Aedes aegypti; Aedes aegypti, 0.0357 mg/mL (Table 1), read-out: Percentage of repellence of mosquitoes Aedes aegypti landing on the warm body) was 68%, the pest or weed control at 53 µg/mL (Aedes aegypti; Aedes aegypti, 0.053 mg/mL (Table 1), read-out: Percentage of repellence of mosquitoes Aedes aegypti landing on the warm body) was 67% and the pest or weed control at 80 µg/mL (Aedes aegypti; Aedes aegypti, 0.08 mg/mL (Table 1), read-out: Percentage of repellence of mosquitoes Aedes aegypti landing on the warm body) was 62%. It also gave a pest or weed control at 119 µg/mL (Aedes aegypti; Aedes aegypti, 0.119 mg/mL (Table 1), read-out: Percentage of repellence of mosquitoes Aedes aegypti landing on the warm body) of 50%, a pest or weed control at 178 µg/mL (Aedes aegypti; Aedes aegypti, 0.178 mg/mL (Table 1), read-out: Percentage of repellence of mosquitoes Aedes aegypti landing on the warm body) of 86% and a pest or weed control at 267 µg/mL (Aedes aegypti; Aedes aegypti, 0.267 mg/mL (Table 1), read-out: Percentage of repellence of mosquitoes Aedes aegypti landing on the warm body) of 86%. The pest or weed control at 400 µg/mL (Aedes aegypti; Aedes aegypti, 0.4 mg/mL (Table 1), read-out: Percentage of repellence of mosquitoes Aedes aegypti landing on the warm body) was 93%, the pest or weed control at 598 µg/mL (Aedes aegypti; Aedes aegypti, 0.598 mg/mL (Table 1), read-out: Percentage of repellence of mosquitoes Aedes aegypti landing on the warm body) was 98% and the pest or weed control at 890 µg/mL (Aedes aegypti; Aedes aegypti, 0.89 mg/mL (Table 1), read-out: Percentage of repellence of mosquitoes Aedes aegypti landing on the warm body) was 98%. The pest or weed control at 2000 µg/mL (Aedes aegypti; Aedes aegypti, 2 mg/mL (Table 1), read-out: Percentage of repellence of mosquitoes Aedes aegypti landing on the warm body) was 97%, the pest or weed control at 4470 µg/mL (Aedes aegypti; Aedes aegypti, 4.47 mg/mL (Table 1), read-out: Percentage of repellence of mosquitoes Aedes aegypti landing on the warm body) was 98% and the pest or weed control at 10000 µg/mL (Aedes aegypti; Aedes aegypti, 10 mg/mL (Table 1), read-out: Percentage of repellence of mosquitoes Aedes aegypti landing on the warm body) was 100%. It also gave a reduce mosquito landing (Aedes aegypti; since the lowest concentrations assessed (Table 1)) of at least 50%, a pest or weed control at 400 µg/mL (Ixodes ricinus) of 41.7% and a pest or weed control at 2000 µg/mL (Ixodes ricinus) of 58.3%. For the same molecule, the pest or weed control at 10000 µg/mL (Ixodes ricinus) was 91.7%.
For `CC=Cc1ccc(OC)c(OC)c1` [compound 1195, 1,2-dimethoxy-4-prop-1-enylbenzene], the pest or weed control at 16 µg/mL (Aedes aegypti; [4]) was 56%, the pest or weed control at 400 µg/mL (Aedes aegypti; [4]) was 69% and the pest or weed control at 10000 µg/mL (Aedes aegypti; [4]) was 100%. The pest or weed control at 0.0016 % (Aedes aegypti; Aedes aegypti, read-out: reduce the number of mosquito landings) was over 50%, the pest or weed control at 1 % (Aedes aegypti; Aedes aegypti, read-out: repellence) was over 90% and the “mosquito landing within the two minutes of experiments” value (Aedes aegypti; highest tested concentration, 1% (Table 3)) was “protect the attractive stimulus for any mosquito landing”. For the same molecule, the pest or weed control at 400 µg/mL (Ixodes ricinus) was 46.2%, the pest or weed control at 2000 µg/mL (Ixodes ricinus) was 76.9% and the pest or weed control at 10000 µg/mL (Ixodes ricinus) was 100%. The ticks repelled (Ixodes ricinus) was “repel all the ticks”.
For `COc1ccc(OC)c(OC)c1` [compound 1201, 1,2,4-trimethoxybenzene], the pest or weed control at 3.2 µg/mL (Aedes aegypti; Aedes aegypti, 0.0032 mg/mL (Table 2), read-out: Percentage of repellence of mosquitoes Aedes aegypti landing on the warm body) was 46%, the pest or weed control at 16 µg/mL (Aedes aegypti; Aedes aegypti, 0.016 mg/mL (Table 2), read-out: Percentage of repellence of mosquitoes Aedes aegypti landing on the warm body) was 82% and the pest or weed control at 35.7 µg/mL (Aedes aegypti; Aedes aegypti, 0.0357 mg/mL (Table 2), read-out: Percentage of repellence of mosquitoes Aedes aegypti landing on the warm body) was 58%. It also gave a pest or weed control at 80 µg/mL (Aedes aegypti; Aedes aegypti, 0.08 mg/mL (Table 2), read-out: Percentage of repellence of mosquitoes Aedes aegypti landing on the warm body) of 72%, a pest or weed control at 178 µg/mL (Aedes aegypti; Aedes aegypti, 0.178 mg/mL (Table 2), read-out: Percentage of repellence of mosquitoes Aedes aegypti landing on the warm body) of 63% and a pest or weed control at 400 µg/mL (Aedes aegypti; Aedes aegypti, 0.4 mg/mL (Table 2), read-out: Percentage of repellence of mosquitoes Aedes aegypti landing on the warm body) of 79%. It also gave a pest or weed control at 890 µg/mL (Aedes aegypti; Aedes aegypti, 0.89 mg/mL (Table 2), read-out: Percentage of repellence of mosquitoes Aedes aegypti landing on the warm body) of 95%, a pest or weed control at 2000 µg/mL (Aedes aegypti; Aedes aegypti, 2 mg/mL (Table 2), read-out: Percentage of repellence of mosquitoes Aedes aegypti landing on the warm body) of 89% and a pest or weed control at 10000 µg/mL (Aedes aegypti; Aedes aegypti, 10 mg/mL (Table 2), read-out: Percentage of repellence of mosquitoes Aedes aegypti landing on the warm body) of 96%. The “decrease the number of mosquito landings” value (Aedes aegypti; lowest doses tested (0.00032% & 0.0016%) (Table 2)) was “two folds”, the pest or weed control at 400 µg/mL (Ixodes ricinus) was 0% and the pest or weed control at 2000 µg/mL (Ixodes ricinus) was 23.1%. The pest or weed control at 10000 µg/mL (Ixodes ricinus) was 100% and the ticks repelled (Ixodes ricinus) was “repel all the ticks”.
`CC(C)c1ccc2c(c1)OCC(=O)CO2` [compound 1232, isopropyl-2H,4H-1,5-benzodioxepin-3-one, 7-] showed a pest or weed control at 178 µg/mL (Anopheles gambiae) of 27%, a pest or weed control at 267 µg/mL (Anopheles gambiae) of 34% and a pest or weed control at 400 µg/mL (Anopheles gambiae) of 65%. For the same molecule, the pest or weed control at 4470 µg/mL (Anopheles gambiae) was 91%, the pest or weed control at 10000 µg/mL (Anopheles gambiae) was 86% and the pest or weed control at 16 µg/mL (Aedes aegypti; [1]) was 0%. It also gave a pest or weed control at 400 µg/mL (Aedes aegypti; [2]) of 32% and a pest or weed control at 10000 µg/mL (Aedes aegypti; [3]) of 86%.
